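How tested: cells in 96-well plates exposed to compound for 48 hours at five concentrations. TGI marks complete inhibition of growth.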
Tests used:
Assay in all cases: NCI tumour cell line growth inhibition, 48 h
SF-295 CNS = tested on: SF-295 CNS
MALME-3M melanoma = tested on: MALME-3M melanoma
COLO 205 colon = tested on: COLO 205 colon
HOP-92 NSCLC = tested on: HOP-92 NSCLC
HCT-116 colon = tested on: HCT-116 colon
HCT-15 colon = tested on: HCT-15 colon
OVCAR-5 ovarian = tested on: OVCAR-5 ovarian
UACC-62 melanoma = tested on: UACC-62 melanoma
TK-10 renal = tested on: TK-10 renal
NCI-H226 lung = tested on: NCI-H226 lung
RXF 393 renal = tested on: RXF 393 renal
SK-MEL-5 melanoma = tested on: SK-MEL-5 melanoma
HOP-62 NSCLC = tested on: HOP-62 NSCLC
SNB-75 CNS = tested on: SNB-75 CNS
NCI-H522 lung = tested on: NCI-H522 lung
BT-549 breast = tested on: BT-549 breast
OVCAR-8 ovarian = tested on: OVCAR-8 ovarian
EKVX NSCLC = tested on: EKVX NSCLC
IGROV1 ovarian = tested on: IGROV1 ovarian
M14 melanoma = tested on: M14 melanoma
A549 NSCLC = tested on: A549 NSCLC
SK-MEL-28 melanoma = tested on: SK-MEL-28 melanoma
SW-620 colon = tested on: SW-620 colon
NCI-H23 lung = tested on: NCI-H23 lung
U251 CNS = tested on: U251 CNS
SF-268 CNS = tested on: SF-268 CNS
786-0 renal = tested on: 786-0 renal
HT29 colon = tested on: HT29 colon
SNB-19 CNS = tested on: SNB-19 CNS
ACHN renal = tested on: ACHN renal
OVCAR-3 ovarian = tested on: OVCAR-3 ovarian
OVCAR-4 ovarian = tested on: OVCAR-4 ovarian
MDA-MB-435 = tested on: MDA-MB-435
HCC-2998 colon = tested on: HCC-2998 colon
UACC-257 melanoma = tested on: UACC-257 melanoma
NCI-H460 lung = tested on: NCI-H460 lung
UO-31 renal = tested on: UO-31 renal
RPMI-8226 leukemia = tested on: RPMI-8226 leukemia
MDA-MB-231 breast = tested on: MDA-MB-231 breast
PC-3 prostate = tested on: PC-3 prostate
SF-539 CNS = tested on: SF-539 CNS
NCI/ADR-RES ovarian = tested on: NCI/ADR-RES ovarian
SK-MEL-2 melanoma = tested on: SK-MEL-2 melanoma
HS 578T breast = tested on: HS 578T breast
CAKI-1 renal = tested on: CAKI-1 renal
KM12 colon = tested on: KM12 colon
SK-OV-3 ovarian = tested on: SK-OV-3 ovarian
SN12C renal = tested on: SN12C renal
K-562 leukemia = tested on: K-562 leukemia
T-47D breast = tested on: T-47D breast
LOX IMVI melanoma = tested on: LOX IMVI melanoma
MCF7 breast = tested on: MCF7 breast
MDA-N = tested on: MDA-N
A498 renal = tested on: A498 renal
SR leukemia = tested on: SR leukemia
MOLT-4 leukemia = tested on: MOLT-4 leukemia
DU-145 prostate = tested on: DU-145 prostate
HL-60(TB) leukemia = tested on: HL-60(TB) leukemia
CCRF-CEM leukemia = tested on: CCRF-CEM leukemia

## CCCCc1ccc(Nc2cc(=O)n(C)c(=O)[nH]2)cc1
SF-295 CNS
  TGI: > 100 µM
MALME-3M melanoma
  TGI: > 100 µM
COLO 205 colon
  TGI: > 100 µM
HOP-92 NSCLC
  TGI: > 100 µM
HCT-116 colon
  TGI: > 100 µM
HCT-15 colon
  TGI: > 100 µM
OVCAR-5 ovarian
  TGI: > 100 µM
UACC-62 melanoma
  TGI: > 100 µM
TK-10 renal
  TGI: > 100 µM
NCI-H226 lung
  TGI: > 100 µM
RXF 393 renal
  TGI: > 100 µM
SK-MEL-5 melanoma
  TGI: > 100 µM
HOP-62 NSCLC
  TGI: > 100 µM
SNB-75 CNS
  TGI: > 100 µM
NCI-H522 lung
  TGI: > 100 µM
BT-549 breast
  TGI: > 100 µM
OVCAR-8 ovarian
  TGI: > 100 µM
EKVX NSCLC
  TGI: > 100 µM
IGROV1 ovarian
  TGI: > 100 µM
M14 melanoma
  TGI: > 100 µM
A549 NSCLC
  TGI: > 100 µM
SK-MEL-28 melanoma
  TGI: > 100 µM
SW-620 colon
  TGI: > 100 µM
NCI-H23 lung
  TGI: > 100 µM
U251 CNS
  TGI: > 100 µM
SF-268 CNS
  TGI: > 100 µM
786-0 renal
  TGI: > 100 µM
HT29 colon
  TGI: > 100 µM
SNB-19 CNS
  TGI: > 100 µM
ACHN renal
  TGI: > 100 µM
OVCAR-3 ovarian
  TGI: > 100 µM
OVCAR-4 ovarian
  TGI: > 100 µM
MDA-MB-435
  TGI: > 100 µM
HCC-2998 colon
  TGI: > 100 µM
UACC-257 melanoma
  TGI: > 100 µM
NCI-H460 lung
  TGI: > 100 µM
UO-31 renal
  TGI: > 100 µM
RPMI-8226 leukemia
  TGI: > 100 µM
MDA-MB-231 breast
  TGI: > 100 µM
PC-3 prostate
  TGI: > 100 µM
SF-539 CNS
  TGI: > 100 µM
NCI/ADR-RES ovarian
  TGI: > 100 µM
SK-MEL-2 melanoma
  TGI: > 100 µM
HS 578T breast
  TGI: > 100 µM
CAKI-1 renal
  TGI: > 100 µM
KM12 colon
  TGI: > 100 µM
SK-OV-3 ovarian
  TGI: > 100 µM
SN12C renal
  TGI: > 100 µM
K-562 leukemia
  TGI: > 100 µM
T-47D breast
  TGI: > 100 µM
LOX IMVI melanoma
  TGI: > 100 µM
MCF7 breast
  TGI: 72.9 µM
MDA-N
  TGI: > 100 µM
A498 renal
  TGI: > 100 µM

## CN1C2CCC1CC(CC(=O)NC(c1ccc(F)cc1)c1ccc(F)cc1)C2 (stereo not given)
SF-295 CNS
  TGI: > 100 µM
MALME-3M melanoma
  TGI: 60.4 µM
SR leukemia
  TGI: 89.5 µM
COLO 205 colon
  TGI: 44.2 µM
HOP-92 NSCLC
  TGI: > 100 µM
HCT-116 colon
  TGI: > 100 µM
HCT-15 colon
  TGI: > 100 µM
OVCAR-5 ovarian
  TGI: > 100 µM
TK-10 renal
  TGI: > 100 µM
NCI-H226 lung
  TGI: > 100 µM
RXF 393 renal
  TGI: > 100 µM
SK-MEL-5 melanoma
  TGI: 45.1 µM
MOLT-4 leukemia
  TGI: > 100 µM
HOP-62 NSCLC
  TGI: > 100 µM
SNB-75 CNS
  TGI: > 100 µM
NCI-H522 lung
  TGI: > 100 µM
BT-549 breast
  TGI: > 100 µM
OVCAR-8 ovarian
  TGI: > 100 µM
EKVX NSCLC
  TGI: > 100 µM
IGROV1 ovarian
  TGI: > 100 µM
M14 melanoma
  TGI: 33.7 µM
A549 NSCLC
  TGI: > 100 µM
SK-MEL-28 melanoma
  TGI: 55.1 µM
SW-620 colon
  TGI: > 100 µM
NCI-H23 lung
  TGI: > 100 µM
U251 CNS
  TGI: > 100 µM
SF-268 CNS
  TGI: > 100 µM
786-0 renal
  TGI: > 100 µM
HT29 colon
  TGI: > 100 µM
SNB-19 CNS
  TGI: > 100 µM
ACHN renal
  TGI: > 100 µM
OVCAR-3 ovarian
  TGI: > 100 µM
OVCAR-4 ovarian
  TGI: > 100 µM
MDA-MB-435
  TGI: > 100 µM
DU-145 prostate
  TGI: > 100 µM
UACC-257 melanoma
  TGI: 39.4 µM
HL-60(TB) leukemia
  TGI: 6.66 µM
NCI-H460 lung
  TGI: > 100 µM
UO-31 renal
  TGI: > 100 µM
RPMI-8226 leukemia
  TGI: > 100 µM
MDA-MB-231 breast
  TGI: > 100 µM
PC-3 prostate
  TGI: > 100 µM
SF-539 CNS
  TGI: > 100 µM
NCI/ADR-RES ovarian
  TGI: > 100 µM
SK-MEL-2 melanoma
  TGI: 49 µM
HS 578T breast
  TGI: > 100 µM
CAKI-1 renal
  TGI: > 100 µM
KM12 colon
  TGI: > 100 µM
CCRF-CEM leukemia
  TGI: 80.6 µM
SK-OV-3 ovarian
  TGI: > 100 µM
SN12C renal
  TGI: > 100 µM
K-562 leukemia
  TGI: > 100 µM
T-47D breast
  TGI: > 100 µM
LOX IMVI melanoma
  TGI: > 100 µM
MDA-N
  TGI: > 100 µM
A498 renal
  TGI: > 100 µM

Source: PubChem BioAssay (NCI)
